Five molecules from US4459417A, “Process for preparing spectinomycin analogs: N-demethylation of spectinomycin or its analogs and realkylation of the intermediates” (The Upjohn Company, priority 1983, dated 1984) can be followed below.

What all share (assay): Minimum inhibitory concentration in vitro
Common to all, as to format: cell-based

One assay concerns S. faecalis UC 694. Conditions: for MIC: Enterococcus faecalis, UC694.
In the next assay the test system is Ps. aeruginosa UC 95. As to conditions: for MIC: Pseudomonas aeruginosa, UC95.
A further assay has as its system K. pneumoniae UC 58. Conditions: for MIC: Klebsiella pneumoniae, UC58.
Another assay has as its system S. marcescens UC 131. Conditions: for MIC: Serratia marcescens, UC131.
A further assay relates to S. aureus UC 76. Conditions: for MIC: Staphylococcus aureus, UC76.
The test system of a further assay is S. typhi UC 215. Conditions: for MIC: Salmonella enterica, read-out: Minimum Inhibitory Concentration; for Minimum Inhibitory Concentration: in vitro, S. typhi UC 215.
The test system of a further assay is S. flexneri UC 143. As to conditions: Shigella flexneri, UC143.
For another assay, the system named is E. coli UC 45. Conditions: for MIC: Escherichia coli, UC45.
For the next assay, the system named is P. vulgaris UC 93. Conditions: for MIC: Proteus vulgaris, UC93.
In the next assay the test system is P. mirabilis UC 6671. As to conditions: for MIC: Proteus mirabilis, UC6671.
The next assay relates to P. stuartii UC 6570. Conditions: for MIC: Providencia stuartii, UC6570.
For a further assay, the system named is S. schottmuelleri UC 126.

In brackets after ≈: the same amount, converted by molar mass. Structures can show the parent of a compound that is named as a salt.

As for `C[C@@H]1CC(=O)[C@]2(O)O[C@@H]3[C@@H](N)[C@@H](O)[C@@H](N)[C@H](O)[C@H]3O[C@@H]2O1` [IIa, N,N'-didemethylspectinomycin dihydrochloride], the MIC against S. faecalis UC 694 is greater than 1000 mg/L; in the assay with Ps. aeruginosa UC 95 it was 250 mg/L; with K. pneumoniae UC 58, 125 mg/L; against S. marcescens UC 131, 31.2 mg/L; against S. aureus UC 76, 250 mg/L; in the assay on S. typhi UC 215, greater than 1000 mg/L. Besides, the MIC in the assay on S. flexneri UC 143 was 250 mg/L; in the assay with E. coli UC 45 it was greater than 1000 mg/L; in the assay on P. vulgaris UC 93, 125 mg/L; with P. mirabilis UC 6671 it was 1000 mg/L.
With “mono-N-demethyl-mono-N-ethylspectinomycin dihydrochloride [IIIb]”, the “Minimum Inhibitory Concentration” value in the assay on S. faecalis UC 694 is recorded as 500 Micrograms/Milliliter; in the assay with P. stuartii UC 6570, greater than 500 Micrograms/Milliliter; with Ps. aeruginosa UC 95 it was 31.2 Micrograms/Milliliter; with K. pneumoniae UC 58, 3.9 Micrograms/Milliliter; with S. marcescens UC 131 it was 7.8 Micrograms/Milliliter; in the assay with S. aureus UC 76 it was 31.2 Micrograms/Milliliter. In addition, the “Minimum Inhibitory Concentration” value with S. typhi UC 215 turned out to be 125 Micrograms/Milliliter; in the assay on E. coli UC 45, 62.5 Micrograms/Milliliter; in the assay on P. vulgaris UC 93, 7.8 Micrograms/Milliliter; in the assay with P. mirabilis UC 6671 it was 15.6 Micrograms/Milliliter.
For the molecule `CN[C@@H]1[C@H](O)[C@H](NC)[C@H]2O[C@@]3(O)C(=O)C[C@@H](C)O[C@H]3O[C@@H]2[C@H]1O` [Ia, spectinomycin], the MIC was 31.2 to 62.5 mg/L (≈ 93.9 to 188 µM) against S. faecalis UC 694; 1000 mg/L (≈ 3010 µM) against P. stuartii UC 6570; 31.2 mg/L (≈ 93.9 µM) against Ps. aeruginosa UC 95; 2 to 3.9 mg/L (≈ 6.02 to 11.7 µM) against K. pneumoniae UC 58; 3.9 to 7.8 mg/L (≈ 11.7 to 23.5 µM) against S. marcescens UC 131; 7.8 mg/L (≈ 23.5 µM) against S. aureus UC 76. Further, the MIC was 3.9 to 7.8 mg/L (≈ 11.7 to 23.5 µM) in the assay with S. typhi UC 215; 3.9 to 7.8 mg/L (≈ 11.7 to 23.5 µM) in the assay with S. flexneri UC 143; 3.9 to 7.8 mg/L (≈ 11.7 to 23.5 µM) with E. coli UC 45; 7.8 to 15.6 mg/L (≈ 23.5 to 46.9 µM) in the assay with P. vulgaris UC 93; 7.8 mg/L (≈ 23.5 µM) against S. schottmuelleri UC 126; 3.9 to 7.8 mg/L (≈ 11.7 to 23.5 µM) against P. mirabilis UC 6671.
Regarding `CCN[C@@H]1[C@H](O)[C@H](NCC)[C@H]2O[C@@]3(O)C(=O)C[C@@H](C)O[C@H]3O[C@@H]2[C@H]1O` [IIIa, N,N'-didemethyl-N,N'-diethylspectinomycin dihydrochloride], the MIC with S. faecalis UC 694 was greater than 1000 mg/L; with P. stuartii UC 6570, greater than 1000 mg/L; in the assay on Ps. aeruginosa UC 95, 1000 mg/L; against K. pneumoniae UC 58, 31.2 mg/L; in the assay with S. marcescens UC 131, 62.5 mg/L; against S. aureus UC 76, 500 mg/L. Further, the MIC with S. typhi UC 215 was 1000 mg/L; in the assay on S. flexneri UC 143, 31.2 mg/L; against E. coli UC 45, 1000 mg/L; with P. vulgaris UC 93 it was 125 mg/L; against S. schottmuelleri UC 126 it was greater than 1000 mg/L; against P. mirabilis UC 6671, 62.5 mg/L.
Take “Mono-N-demethylspectinomycin dihydrochlorides [IIb]”: the “Minimum Inhibitory Concentration” value was found to be 125 Micrograms/Milliliter in the assay on S. faecalis UC 694; 15.6 Micrograms/Milliliter with K. pneumoniae UC 58; 3.9 Micrograms/Milliliter with S. marcescens UC 131; 15.6 Micrograms/Milliliter with S. aureus UC 76; 62.5 Micrograms/Milliliter in the assay with S. typhi UC 215; 15.6 Micrograms/Milliliter in the assay on P. vulgaris UC 93. Further, the “Minimum Inhibitory Concentration” value with P. mirabilis UC 6671 is reported as 15.6 Micrograms/Milliliter.
